This note sets out measurements from patent US12054488B2, “Pyrazolopyrimidine compound and preparation method therefor and use thereof in preparation of anti-cancer drug” (SUZHOU RAYMON PHARMACEUTICALS COMPANY, LTD., priority 2018, dated 2024).

SMILES strings stand for the structures.

Sequence of PI3K-alpha enzyme (P42336 whole entry): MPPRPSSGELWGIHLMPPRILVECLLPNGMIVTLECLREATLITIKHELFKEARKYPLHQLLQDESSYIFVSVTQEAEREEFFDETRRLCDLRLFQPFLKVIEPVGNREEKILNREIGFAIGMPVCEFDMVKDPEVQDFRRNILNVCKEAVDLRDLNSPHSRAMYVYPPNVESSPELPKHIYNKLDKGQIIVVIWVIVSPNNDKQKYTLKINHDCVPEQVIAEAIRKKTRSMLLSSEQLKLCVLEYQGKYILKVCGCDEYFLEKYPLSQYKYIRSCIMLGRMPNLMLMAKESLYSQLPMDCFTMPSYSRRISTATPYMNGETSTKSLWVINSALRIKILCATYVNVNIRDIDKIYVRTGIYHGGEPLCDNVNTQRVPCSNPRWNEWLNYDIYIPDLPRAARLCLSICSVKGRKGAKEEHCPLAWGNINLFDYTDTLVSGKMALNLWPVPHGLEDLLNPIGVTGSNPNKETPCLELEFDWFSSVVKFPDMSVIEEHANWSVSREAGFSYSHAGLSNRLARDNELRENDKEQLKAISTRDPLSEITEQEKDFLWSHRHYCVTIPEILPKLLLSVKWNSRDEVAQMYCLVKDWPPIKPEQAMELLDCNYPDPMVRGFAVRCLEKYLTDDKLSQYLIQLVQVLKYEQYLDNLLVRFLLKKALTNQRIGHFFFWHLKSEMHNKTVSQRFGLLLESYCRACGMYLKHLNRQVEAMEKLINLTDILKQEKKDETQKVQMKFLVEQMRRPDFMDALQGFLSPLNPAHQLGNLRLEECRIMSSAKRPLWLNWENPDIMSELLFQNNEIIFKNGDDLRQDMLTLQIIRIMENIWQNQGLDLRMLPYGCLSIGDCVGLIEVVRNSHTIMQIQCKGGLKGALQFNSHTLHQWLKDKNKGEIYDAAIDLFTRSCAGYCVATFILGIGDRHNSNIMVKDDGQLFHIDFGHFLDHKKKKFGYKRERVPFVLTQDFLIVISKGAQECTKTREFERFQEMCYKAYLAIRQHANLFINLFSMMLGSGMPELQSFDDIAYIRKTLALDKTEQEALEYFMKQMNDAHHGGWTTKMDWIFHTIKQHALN
Sequence of PI3K-alpha enzyme (P27986 whole entry partner): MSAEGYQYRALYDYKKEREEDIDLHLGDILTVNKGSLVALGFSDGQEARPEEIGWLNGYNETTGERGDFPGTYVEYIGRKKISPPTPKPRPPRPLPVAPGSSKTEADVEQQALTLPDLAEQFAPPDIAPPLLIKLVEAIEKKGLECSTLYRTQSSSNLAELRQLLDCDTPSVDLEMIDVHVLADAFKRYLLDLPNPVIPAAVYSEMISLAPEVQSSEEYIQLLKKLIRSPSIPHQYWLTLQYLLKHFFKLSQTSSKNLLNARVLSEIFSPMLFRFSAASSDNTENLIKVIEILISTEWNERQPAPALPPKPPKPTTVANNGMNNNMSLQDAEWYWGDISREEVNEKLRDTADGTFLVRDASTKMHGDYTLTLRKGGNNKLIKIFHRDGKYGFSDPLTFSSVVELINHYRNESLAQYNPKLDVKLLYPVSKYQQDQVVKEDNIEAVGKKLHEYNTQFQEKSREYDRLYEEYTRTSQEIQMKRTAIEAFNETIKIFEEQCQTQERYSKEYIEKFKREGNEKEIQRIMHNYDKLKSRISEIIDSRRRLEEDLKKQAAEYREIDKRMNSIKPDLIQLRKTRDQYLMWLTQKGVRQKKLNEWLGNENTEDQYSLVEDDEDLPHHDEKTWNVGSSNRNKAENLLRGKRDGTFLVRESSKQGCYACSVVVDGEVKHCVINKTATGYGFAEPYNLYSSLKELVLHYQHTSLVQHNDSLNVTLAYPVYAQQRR

The target of this assay is PI3K-alpha enzyme (Homo sapiens (Human), UniProt P42336). Put plainly: PI3-Kinase (human) HTRF Assay kit, PI3K alpha enzyme IC50 determination. It counts as biochemical. The following applies: ATP 10 μM, PIP2 10 μM, 1% DMSO, 30 min at room temperature, double holes per concentration, read-out: half inhibitory concentration (IC50) on PI3K-alpha. Here is the method:
• 4× Reaction Buffer was diluted to 1× with ddH2O, and 1M DTT was added to make the final concentration of 5 mM. Prepare fresh before each use. For example, to prepare 10 mL 1× Reaction Buffer, adding 2.5 mL 4× Reaction Buffer, 50 μL 1 M DTT, and 7.45 mL ddH2O. Throughout the experiment, freshly prepared 1× Reaction Buffer was used to prepare ATP working solution, substrate and enzyme mixed working solution, etc.
• The compound to be tested was dissolved in DMSO to 1 mM as a storage solution, and then diluted with DMSO in a 4-fold ratio for a total of 10 concentration points. 1 μL of each was added to 24 μL 1× Reaction Buffer. 5 μL of each diluted solution was added into a 384-well plate and contained 1% DMSO.
• 1× reaction buffer was used to prepare 2×PIP2 working solution to make the final concentration of 20 μM and PIP2 reaction final concentration of 10 μM, for example, to prepare 1 ml 1× reaction buffer/PIP2 working solution, add 20 μL of PIP2 to 980 μL 1× reaction buffer. This working solution should be prepared with 0.1-0.2 ml more to meet the control usage and dead volume.
• The kinase was diluted with 2×PIP2 working solution, and the concentration of the kinase working solution was 10 ng/well.
• That is, 2×PIP2 working solution.
• 10 mM ATP was diluted to 40 μM with 1× reaction buffer. In a 20 μL kinase reaction system, the concentration of ATP was 10 μM. For example, to prepare 2 ml ATP working solution, take 8 μL 10 mM ATP and add it to 1992 μL 1× reaction buffer.
• Stop A and Stop B were mixed in a ratio of 3:1 and can be used after at least 2 hours at room temperature.
• DM C, DM A and DM B were mixed in a ratio of 18:1:1, and can be used after at least 2 hours at room temperature.
• Emission Ratio (ER)=[…] Emission signal/620 nm Emission signal • The average emission intensity ratio (Emission Ratio) of the 100% inhibition control is recorded as: ER100% • The average Emission Ratio of the 0% inhibition control is recorded as: ER0%
• The inhibition rate is calculated with the following formula: Inhibition rate=(ERsample−ER0%)/(ER100%−ER0%)×100% [(ERpositive−ERsample)/(ERpositive−ERnegative)*100%]
With `CS(=O)(=O)NC(=O)Cc1ccc(NC(=O)Nc2ccc(-c3nc(N4CCOCC4)c4[nH]nc(N)c4n3)cc2)cc1` [Compound I-3, 2-(4-(3-(4-(3-amino-7-morpholino-1H-pyrazolo[4,3-d]pyrimidin-5-yl)phenyl)ureido)phenyl)-N-(methylsulfonyl)acetamide], the IC50 was 89.1 nM. In the case of `CC(C)(O)c1ccc(NC(=O)Nc2ccc(-c3nc(N4CCOCC4)c4[nH]nc(N)c4n3)cc2)cc1` [Compound I-2, 1-(4-(3-amino-7-morpholino-1H-pyrazolo[4,3-d]pyrimidin-5-yl)phenyl)-3-(4(2-hydroxypropan-2-yl)phenyl)urea] it was 89.6 nM; in that of `Nc1n[nH]c2c(N3CCOCC3)nc(-c3ccc(NC(=O)Nc4ccc(CO)cc4)cc3)nc12` [Compound I-1, 1-(4-(3-amino-7-morpholino-1H-pyrazolo[4,3-d]pyrimidin-5-yl)phenyl)-3-(4-(hydroxymethyl)phenyl)urea], 10.7 nM.

For the molecule `Nc1n[nH]c2c(N3CCOCC3)nc(-c3ccc(NC(=O)Nc4ccc(COCCN5CCOCC5)cc4)cc3)nc12` [Compound I-6, 1-(4-(3-amino-7-morpholino-1H-pyrazolo[4,3-d]pyrimidin-5-yl)phenyl)-3-(4-((2-morpholinoethoxy)methyl)phenyl)urea], the IC50 came out at 40.9 nM. In the case of `CC1(C)C(=O)Nc2cc(NC(=O)Nc3ccc(-c4nc(N5CCOCC5)c5[nH]nc(N)c5n4)cc3)ccc21` [Compound I-4, 1-(4-(3-amino-7-morpholino-1H-pyrazolo[4,3-d]pyrimidin-5-yl)phenyl)-3-(3,3-dimethyl-2-oxoindolin-6-yl)urea] it was 108 nM; in that of `Nc1n[nH]c2c(N3CCOCC3)nc(-c3ccc(NC(=O)Nc4ccc(CO)c(C(F)(F)F)c4)cc3)nc12` [Compound I-5, 1-(4-(3-amino-7-morpholino-1H-pyrazolo[4,3-d]pyrimidin-5-yl)phenyl)-3-(4-(hydroxymethyl)-3-(trifluoromethyl)phenyl)urea], 228 nM.
